According to ChEMBL document CHEMBL1201862, “PubChem BioAssay data set” (2004):
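1) Cells in 96-well plates. 2) Compound, 48 h, 5 concentrations. 3) Linear interpolation between surrounding doses. 4) Unreached endpoint = highest concentration. At the GI50, growth is halved.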 Active and inactive are the calls of the source. Cut-off read from the data, not from the text of the source: active = GI50 up to about 1.1 µM and inactive = higher.

Legend:
Experiment in all cases: growth of human tumour cells (NCI), 48 h
ACHN = system: ACHN
SF-268 = system: SF-268
RXF 393 = system: RXF 393
COLO 205 = system: COLO 205
MOLT-4 = system: MOLT-4
HOP-62 = system: HOP-62
CAKI-1 = system: CAKI-1
UACC-62 = system: UACC-62
A498 = system: A498
UO-31 = system: UO-31
HCT-15 = system: HCT-15
NCI-H522 = system: NCI-H522
786-0 = system: 786-0
OVCAR-5 = system: OVCAR-5
HCT-116 = system: HCT-116
IGROV-1 = system: IGROV-1
EKVX = system: EKVX
NCI-H226 = system: NCI-H226

Compound	GI50 (ACHN)	GI50 (SF-268)	GI50 (RXF 393)	GI50 (COLO 205)	GI50 (MOLT-4)	GI50 (HOP-62)	GI50 (CAKI-1)	GI50 (UACC-62)	GI50 (A498)	GI50 (UO-31)	GI50 (HCT-15) [µM]	GI50 (NCI-H522)	GI50 (786-0)	GI50 (OVCAR-5)	GI50 (HCT-116)	GI50 (IGROV-1)	GI50 (EKVX)	GI50 (NCI-H226)
CN(C)[C@@H]1C(O)=C(C(N)=O)C(=O)[C@@]2(O)C(O)=C3C(=O)c4c(O)cccc4C[C@H]3C[C@@H]12	3.74 µM (inactive)	1.73 µM (inactive)	1.69 µM (inactive)	1.77 µM (inactive)	2.45 µM (inactive)	2 µM (inactive)	1.98 µM (inactive)	1.72 µM (inactive)	2.2 µM (inactive)	1.87 µM (inactive)	4.8	2.13 µM (inactive)	2.31 µM (inactive)	2.09 µM (inactive)	1.77 µM (inactive)	2.1 µM (inactive)		
COC(=O)c1ccc(CS(=O)(=O)c2ccccc2)cc1	> 100 µM (inactive)	> 100 µM (inactive)	> 100 µM (inactive)	59.4 µM (inactive)	> 100 µM (inactive)	> 100 µM (inactive)	> 100 µM (inactive)	99.8 µM (inactive)		> 100 µM (inactive)	39.5		> 100 µM (inactive)	> 100 µM (inactive)	60.3 µM (inactive)	> 100 µM (inactive)	> 100 µM (inactive)	> 100 µM (inactive)
Cc1nc2ccncc2[nH]1	> 100 µM (inactive)	> 100 µM (inactive)	> 100 µM (inactive)	> 100 µM (inactive)	> 100 µM (inactive)	> 100 µM (inactive)	> 100 µM (inactive)	> 100 µM (inactive)	> 100 µM (inactive)	> 100 µM (inactive)	> 100		> 100 µM (inactive)	> 100 µM (inactive)	> 100 µM (inactive)	> 100 µM (inactive)	> 100 µM (inactive)	> 100 µM (inactive)
COC1C(CN[N+](=O)CC2OC3OC(C)(C)OC3C2OC)OC2OC(C)(C)OC21 (stereo unspecified)	> 100 µM (inactive)	> 100 µM (inactive)	> 100 µM (inactive)	> 100 µM (inactive)	> 100 µM (inactive)	> 100 µM (inactive)	> 100 µM (inactive)	> 100 µM (inactive)	> 100 µM (inactive)	> 100 µM (inactive)	> 100		> 100 µM (inactive)	> 100 µM (inactive)	> 100 µM (inactive)	> 100 µM (inactive)	> 100 µM (inactive)	> 100 µM (inactive)
